Experimental data as given in paper PMC9090415, “Discovery of small molecule inhibitors of Plasmodium falciparum apicoplast DNA polymerase” (Journal of Enzyme Inhibition and Medicinal Chemistry, 2022).

Biological target: P. falciparum apicoplast DNA polymerase (Pf-apPOL) (Plasmodium falciparum, UniProt Q8ILY1)
Assay: Fluorescence-based high-throughput DNA polymerase assay (molecular beacon), primary screen and dose-response;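 on % inhibition ApPOL 90': test concentration in µM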;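 on % inhibition apPOL 180': test concentration in µM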
Format: biochemical
Method in brief: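 Single-point screening used 10 µM compound with 20 nM polymerase, 20 nM hairpin substrate and 6 µM dNTPs for 90 min at 25 °C. Confirmatory titrations (2.5–80 µM) followed fluorescence at three times, and IC50 was derived from a fit including a cooperativity term n.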

[1] = primary screen value of the 186 hits; unit not given; 90 min, 10 µM
[2] = supplemental file 2, sheet IC50 nontoxic compounds; Pf-apPOL

P. falciparum apicoplast DNA polymerase (Pf-apPOL), sequence (Q8ILY1 entry or part of it): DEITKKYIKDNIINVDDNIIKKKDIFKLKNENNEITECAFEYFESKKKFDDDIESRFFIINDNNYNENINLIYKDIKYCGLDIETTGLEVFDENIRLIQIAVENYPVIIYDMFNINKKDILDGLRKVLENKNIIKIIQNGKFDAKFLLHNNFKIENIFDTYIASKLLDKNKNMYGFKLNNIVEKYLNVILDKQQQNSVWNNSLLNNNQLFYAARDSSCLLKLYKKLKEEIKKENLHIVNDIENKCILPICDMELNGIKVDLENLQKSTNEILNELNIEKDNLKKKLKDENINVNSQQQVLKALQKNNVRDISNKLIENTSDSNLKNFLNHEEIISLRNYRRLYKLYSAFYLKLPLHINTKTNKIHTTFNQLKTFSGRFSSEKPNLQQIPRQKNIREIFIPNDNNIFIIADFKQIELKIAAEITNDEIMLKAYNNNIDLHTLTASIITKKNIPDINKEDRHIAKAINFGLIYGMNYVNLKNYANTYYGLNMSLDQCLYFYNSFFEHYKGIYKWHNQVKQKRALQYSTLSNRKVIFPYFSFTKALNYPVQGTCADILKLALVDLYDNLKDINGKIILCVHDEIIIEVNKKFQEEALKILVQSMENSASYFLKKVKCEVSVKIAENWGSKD

## O=[N+]([O-])c1ccc(SCc2ccco2)c2cccnc12 [KU0034480]
DRC-1; concentration 2.5; 10'
  % inhibition Apo pol 10': 15.1764%
DRC-1; concentration 2.5; 90'
  % inhibition Apol 90': 4.148%
DRC-1; concentration 2.5; 180'
  % inhibition apPOL 180': -3.317%
DRC-1; concentration 5; 10'
  % inhibition Apo pol 10': 32.9023%
DRC-1; concentration 5; 90'
  % inhibition Apol 90': 16.0357%
DRC-1; concentration 5; 180'
  % inhibition apPOL 180': 6.603%
DRC-1; concentration 10; 10'
  % inhibition Apo pol 10': 55.3292%
DRC-1; concentration 10; 90'
  % inhibition Apol 90': 36.0729%
DRC-1; concentration 10; 180'
  % inhibition apPOL 180': 23.8373%
DRC-1; concentration 20; 10'
  % inhibition Apo pol 10': 73.1419%
DRC-1; concentration 20; 90'
  % inhibition Apol 90': 49.2841%
DRC-1; concentration 20; 180'
  % inhibition apPOL 180': 26.1748%
DRC-1; concentration 40; 10'
  % inhibition Apo pol 10': 89.7276%
DRC-1; concentration 40; 90'
  % inhibition Apol 90': 77.8644%
DRC-1; concentration 40; 180'
  % inhibition apPOL 180': 65.2989%
DRC-1; concentration 80 (unit not given); 10'
  % inhibition Apo pol 10': 92.5619%
DRC-1; concentration 80; 90'
  % inhibition Apol 90': 91.6594%
DRC-1; concentration 80; 180'
  % inhibition apPOL 180': 89.7624%
DRC-2; 5'; concentration 2.5
  % inhibition Apo pol 5': 33%
DRC-2; 5'; concentration 5
  % inhibition Apo pol 5': 33%
DRC-2; 40'; concentration 5
  % inhibition Apol 40': 33%
DRC-2; 90'; concentration 40
  % inhibition ApPOL 90': 75%
DRC-2; 180'; concentration 40
  % inhibition apPOL 180': 75%
DRC-2; 180'; concentration 80
  % inhibition apPOL 180': 75%
DRC-2; concentration 2.5; 5'
  % inhibition Apo pol 5': 33%
DRC-2; concentration 2.5; 40'
  % inhibition Apol 40': 40%
DRC-2; concentration 2.5; 90'
  % inhibition ApPOL 90': 36%
DRC-2; concentration 2.5; 180'
  % inhibition apPOL 180': 26%
DRC-2; concentration 5; 5'
  % inhibition Apo pol 5': 33%
DRC-2; concentration 5; 40'
  % inhibition Apol 40': 33%
DRC-2; concentration 5; 90'
  % inhibition ApPOL 90': 29%
DRC-2; concentration 5; 180'
  % inhibition apPOL 180': 16%
DRC-2; concentration 10; 5'
  % inhibition Apo pol 5': 38%
DRC-2; concentration 10; 40'
  % inhibition Apol 40': 39%
DRC-2; concentration 10; 90'
  % inhibition ApPOL 90': 35%
DRC-2; concentration 10; 180'
  % inhibition apPOL 180': 22%
DRC-2; concentration 20; 5'
  % inhibition Apo pol 5': 47%
DRC-2; concentration 20; 40'
  % inhibition Apol 40': 63%
DRC-2; concentration 20; 90'
  % inhibition ApPOL 90': 62%
DRC-2; concentration 20; 180'
  % inhibition apPOL 180': 53%
DRC-2; concentration 40; 5'
  % inhibition Apo pol 5': 48%
DRC-2; concentration 40; 40'
  % inhibition Apol 40': 72%
DRC-2; concentration 40; 90'
  % inhibition ApPOL 90': 75%
DRC-2; concentration 40; 180'
  % inhibition apPOL 180': 75%
DRC-2; concentration 80; 5'
  % inhibition Apo pol 5': 13%
DRC-2; concentration 80; 40'
  % inhibition Apol 40': 57%
DRC-2; concentration 80; 90'
  % inhibition ApPOL 90': 66%
DRC-2; concentration 80; 180'
  % inhibition apPOL 180': 75%
[1]
  DNA Pol: 42
Primary screen value; head prints only 'DNA Pol'; 90 min, 10 µM
  DNA Pol: 42

## CCOc1ccc(/C=C2\N=C(c3cc([N+](=O)[O-])cc([N+](=O)[O-])c3)OC2=O)cc1 [Molecule 97, CCOc1ccc(cc1)/C=C/1\N=C(OC1=O)c1cc(cc(c1)N(=O)=O)N(=O)=O]
'DNA Pol' of the 186 hits list (primary screen result); unit not given; 90 min, 10 µM
  DNA Pol: 62
DRC-1; 10'; concentration 2.5
  % inhibition Apo pol 10': 32.0109%
DRC-1; 10'; concentration 5
  % inhibition Apo pol 10': 55.2757%
DRC-1; 10'; concentration 10
  % inhibition Apo pol 10': 83.2599%
DRC-1; 10'; concentration 20
  % inhibition Apo pol 10': 91.8438%
DRC-1; 10'; concentration 40
  % inhibition Apo pol 10': 94.8761%
DRC-1; 10'; concentration 80
  % inhibition Apo pol 10': 92.0577%
DRC-1; 90'; concentration 2.5
  % inhibition Apol 90': 15.0386%
DRC-1; 90'; concentration 5
  % inhibition Apol 90': 31.639%
DRC-1; 90'; concentration 10
  % inhibition Apol 90': 61.0945%
DRC-1; 90'; concentration 20
  % inhibition Apol 90': 80.2984%
DRC-1; 90'; concentration 40
  % inhibition Apol 90': 94.8535%
DRC-1; 90'; concentration 80
  % inhibition Apol 90': 94.5175%
DRC-1; 180'; concentration 2.5
  % inhibition apPOL 180': 6.537%
DRC-1; 180'; concentration 5
  % inhibition apPOL 180': 16.2109%
DRC-1; 180'; concentration 10
  % inhibition apPOL 180': 41.6227%
DRC-1; 180'; concentration 20
  % inhibition apPOL 180': 66.1189%
DRC-1; 180'; concentration 40
  % inhibition apPOL 180': 93.496%
DRC-1; 180'; concentration 80
  % inhibition apPOL 180': 95.7221%
DRC-2, 40', concentration 20 (unit not given)
  % inhibition Apol 40': 68%
DRC-2, 40', concentration 40 (unit not given)
  % inhibition Apol 40': 76%
DRC-2, 40', concentration 80 (unit not given)
  % inhibition Apol 40': 76%
DRC-2, 90', concentration 20 (unit not given)
  % inhibition ApPOL 90': 68%
DRC-2, 180', concentration 20 (unit not given)
  % inhibition apPOL 180': 60%
DRC-2; 5'; concentration 2.5
  % inhibition Apo pol 5': 20%
DRC-2; 5'; concentration 5
  % inhibition Apo pol 5': 43%
DRC-2; 5'; concentration 10
  % inhibition Apo pol 5': 52%
DRC-2; 5'; concentration 20
  % inhibition Apo pol 5': 59%
DRC-2; 5'; concentration 40
  % inhibition Apo pol 5': 61%
DRC-2; 5'; concentration 80
  % inhibition Apo pol 5': 60%
DRC-2; 5'; concentration 80 (unit not given)
  % inhibition Apo pol 5': 60%
DRC-2; 40'; concentration 2.5
  % inhibition Apol 40': 14%
DRC-2; 40'; concentration 5
  % inhibition Apol 40': 38%
DRC-2; 40'; concentration 10
  % inhibition Apol 40': 47%
DRC-2; 40'; concentration 20
  % inhibition Apol 40': 68%
DRC-2; 40'; concentration 40
  % inhibition Apol 40': 76%
DRC-2; 40'; concentration 80
  % inhibition Apol 40': 76%
DRC-2; 90'; concentration 2.5
  % inhibition ApPOL 90': 9%
DRC-2; 90'; concentration 5
  % inhibition ApPOL 90': 33%
DRC-2; 90'; concentration 10
  % inhibition ApPOL 90': 42%
DRC-2; 90'; concentration 20
  % inhibition ApPOL 90': 68%
DRC-2; 90'; concentration 40
  % inhibition ApPOL 90': 79%
DRC-2; 90'; concentration 80
  % inhibition ApPOL 90': 80%
DRC-2; 180'; concentration 2.5
  % inhibition apPOL 180': 2.15%
DRC-2; 180'; concentration 5
  % inhibition apPOL 180': 19%
DRC-2; 180'; concentration 10
  % inhibition apPOL 180': 28%
DRC-2; 180'; concentration 20
  % inhibition apPOL 180': 60%
DRC-2; 180'; concentration 40
  % inhibition apPOL 180': 81%
DRC-2; 180'; concentration 80
  % inhibition apPOL 180': 84%
Primary screen value of the library well; unit not given; 90 min, 10 µM
  DNA Pol: 62

## NC(=O)c1cc[n+](CC2=C(C(=O)O)N3C(=O)[C@@H](NC(=O)[C@@H](c4ccccc4)S(=O)(=O)[O-])[C@H]3SC2)cc1 [Molecule 9]
[2]
  IC50: 4.4 µM

## COc1cc(Cl)c(C)cc1NC(=O)Cn1ccc2c(=O)[nH]ccc21 [Molecule 33, COc1cc(Cl)c(cc1NC(=O)Cn1ccc2c1cc[nH]c2=O)C]
DRC-1; 10'; concentration 2.5
  % inhibition Apo pol 10': 1.493%
DRC-1; 10'; concentration 5
  % inhibition Apo pol 10': 13.6047%
DRC-1; 10'; concentration 10
  % inhibition Apo pol 10': 50.6447%
DRC-1; 10'; concentration 20
  % inhibition Apo pol 10': 68.9678%
DRC-1; 10'; concentration 40
  % inhibition Apo pol 10': 82.7027%
DRC-1; 10'; concentration 80
  % inhibition Apo pol 10': 78.8716%
DRC-1; 90'; concentration 2.5
  % inhibition Apol 90': -1.924%
DRC-1; 90'; concentration 5
  % inhibition Apol 90': 4.488%
DRC-1; 90'; concentration 10
  % inhibition Apol 90': 37.9384%
DRC-1; 90'; concentration 20
  % inhibition Apol 90': 62.017%
DRC-1; 90'; concentration 40
  % inhibition Apol 90': 81.936%
DRC-1; 90'; concentration 80
  % inhibition Apol 90': 83.5925%
DRC-1; 180'; concentration 2.5
  % inhibition apPOL 180': -6.054%
DRC-1; 180'; concentration 5
  % inhibition apPOL 180': -2.934%
DRC-1; 180'; concentration 10
  % inhibition apPOL 180': 23.1917%
DRC-1; 180'; concentration 20
  % inhibition apPOL 180': 50.4837%
DRC-1; 180'; concentration 40
  % inhibition apPOL 180': 76.46%
DRC-1; 180'; concentration 80
  % inhibition apPOL 180': 83.9917%
DRC-2; 5'; concentration 2.5
  % inhibition Apo pol 5': -0.547%
DRC-2; 5'; concentration 5
  % inhibition Apo pol 5': 14%
DRC-2; 5'; concentration 10
  % inhibition Apo pol 5': 36%
DRC-2; 5'; concentration 20
  % inhibition Apo pol 5': 42%
DRC-2; 5'; concentration 40
  % inhibition Apo pol 5': 40%
DRC-2; 5'; concentration 80
  % inhibition Apo pol 5': 31%
DRC-2; 40'; concentration 2.5
  % inhibition Apol 40': -1.56%
DRC-2; 40'; concentration 5
  % inhibition Apol 40': 18%
DRC-2; 40'; concentration 10
  % inhibition Apol 40': 46%
DRC-2; 40'; concentration 20
  % inhibition Apol 40': 60%
DRC-2; 40'; concentration 40
  % inhibition Apol 40': 62%
DRC-2; 40'; concentration 80
  % inhibition Apol 40': 57%
DRC-2; 90'; concentration 2.5
  % inhibition ApPOL 90': -2%
DRC-2; 90'; concentration 5
  % inhibition ApPOL 90': 15%
DRC-2; 90'; concentration 10
  % inhibition ApPOL 90': 45%
DRC-2; 90'; concentration 20
  % inhibition ApPOL 90': 61%
DRC-2; 90'; concentration 40
  % inhibition ApPOL 90': 65%
DRC-2; 90'; concentration 80
  % inhibition ApPOL 90': 63%
DRC-2; 180'; concentration 2.5
  % inhibition apPOL 180': -9%
DRC-2; 180'; concentration 5
  % inhibition apPOL 180': 6.65%
DRC-2; 180'; concentration 10
  % inhibition apPOL 180': 35%
DRC-2; 180'; concentration 20
  % inhibition apPOL 180': 56%
DRC-2; 180'; concentration 40
  % inhibition apPOL 180': 67%
DRC-2; 180'; concentration 80
  % inhibition apPOL 180': 68%
Primary screen value by plate and well; 90 min, 10 µM
  DNA Pol: 43
[1]
  DNA Pol: 43

## CCSc1nnc(NC(=O)Cc2csc(NC(=O)c3cnccn3)n2)s1 [Molecule 79]
[2]
  IC50: 46.7 µM

## Oc1ccc(N=Nc2ccccc2)c(O)c1 [Molecule 80]
[2]
  IC50: 37.5 µM
